Data as given in ChEMBL document CHEMBL5523736, “The First Discovery of Marine Polyoxygenated Cembranolides as Potential Agents for the Treatment of Ulcerative Colitis” (J Med Chem, 2024).
Calls of active or inactive are those of the source. The rule behind the calls is not given here.

test system: RAW264.7; assay: Antiinflammatory activity in mouse RAW264.7 cells assessed as inhibition of LPS-induced NO production at 20 uM incubated for 24 hrs relative to control; format: functional; settings: not given

SMILES	inhibition at 20 µM
C=C1C(=O)O[C@]2(C)CC[C@@H]1C[C@@H]1O[C@@]1(C)CC/C=C(\C)CC[C@@H]2O [SINULARIOLIDE]	108%
C=C(C(=O)OC)[C@@H]1CC[C@@]2(C)O[C@@H]2CC[C@](C)(O)/C=C/C[C@]2(C)O[C@H]2C1	31.1%
C=C1CO[C@]2(C)CC[C@@H]1C[C@]1(O)O[C@@]1(C)CC/C=C(\C)CC[C@@H]2O	-146%
C=C1C(=O)O[C@]2(C)CC[C@@H]1C[C@H]1O[C@@]1(C)C/C=C/[C@](C)(OO)CC[C@H]2O	124%

test system: RAW264.7; assay: Antiinflammatory activity in LPS-induced mouse RAW264.7 cells assessed as reduction in iNOS mRNA expression level at 20 uM by qRT-PCR analysis; format: functional, cell-based; settings: not given

SMILES	Activity
C=C1C(=O)O[C@]2(C)CC[C@@H]1C[C@@H]1O[C@@]1(C)CC/C=C(\C)CC[C@@H]2O [SINULARIOLIDE]	Active
C=C1C(=O)O[C@]2(C)CC[C@@H]1C[C@H]1O[C@@]1(C)C/C=C/[C@](C)(OO)CC[C@H]2O	Active

test system: RAW264.7; assay: Antiinflammatory activity in LPS-induced mouse RAW264.7 cells assessed as reduction in TNF-alpha mRNA expression level at 20 uM by qRT-PCR analysis; format: functional, cell-based; settings: not given

SMILES	Activity
C=C1C(=O)O[C@]2(C)CC[C@@H]1C[C@@H]1O[C@@]1(C)CC/C=C(\C)CC[C@@H]2O [SINULARIOLIDE]	Active
C=C1C(=O)O[C@]2(C)CC[C@@H]1C[C@H]1O[C@@]1(C)C/C=C/[C@](C)(OO)CC[C@H]2O	Active

test system: RAW264.7; assay: Antiinflammatory activity in LPS-induced mouse RAW264.7 cells assessed as reduction in IL-1beta mRNA expression level at 20 uM by qRT-PCR analysis; format: functional, cell-based; settings: not given

SMILES	Activity
C=C1C(=O)O[C@]2(C)CC[C@@H]1C[C@@H]1O[C@@]1(C)CC/C=C(\C)CC[C@@H]2O [SINULARIOLIDE]	Active
C=C1C(=O)O[C@]2(C)CC[C@@H]1C[C@H]1O[C@@]1(C)C/C=C/[C@](C)(OO)CC[C@H]2O	Active

test system: not listed separately; assay: Cytotoxicity against mouse RAW264.7 cells assessed as cell viability at 20 uM incubated for 24 hrs by CCK8 assay relative to control; format: toxicity, cell-based; settings: read-out: Activity

SMILES	viability at 24 h, 20 µM
C=C1C(=O)O[C@]2(C)CC[C@@H]1C[C@@H]1O[C@@]1(C)CC/C=C(\C)CC[C@@H]2O [SINULARIOLIDE]	83.3%
C=C(C(=O)OC)[C@@H]1CC[C@@]2(C)O[C@@H]2CC[C@](C)(O)/C=C/C[C@]2(C)O[C@H]2C1	108%
C=C1CO[C@]2(C)CC[C@@H]1C[C@]1(O)O[C@@]1(C)CC/C=C(\C)CC[C@@H]2O	82.3%
C=C1C(=O)O[C@]2(C)CC[C@@H]1C[C@H]1O[C@@]1(C)C/C=C/[C@](C)(OO)CC[C@H]2O	108%

test system: RAW264.7; assay: Antiinflammatory activity in mouse RAW264.7 cells assessed as inhibition of LPS-induced NO production incubated for 24 hrs; format: functional, cell-based; settings: RAW264.7, 24 h

SMILES	IC50
C=C1C(=O)O[C@]2(C)CC[C@@H]1C[C@@H]1O[C@@]1(C)CC/C=C(\C)CC[C@@H]2O [SINULARIOLIDE]	3610 nM
C=C1C(=O)O[C@]2(C)CC[C@@H]1C[C@H]1O[C@@]1(C)C/C=C/[C@](C)(OO)CC[C@H]2O	840 nM

test system: RAW264.7; assay: Antiinflammatory activity in LPS-induced mouse RAW264.7 cells assessed as reduction in IL-6 mRNA expression level at 20 uM by qRT-PCR analysis; format: functional, cell-based; settings: not given

SMILES	Activity
C=C1C(=O)O[C@]2(C)CC[C@@H]1C[C@@H]1O[C@@]1(C)CC/C=C(\C)CC[C@@H]2O [SINULARIOLIDE]	Active
C=C1C(=O)O[C@]2(C)CC[C@@H]1C[C@H]1O[C@@]1(C)C/C=C/[C@](C)(OO)CC[C@H]2O	Active
